# Source: patent US12485078B2, “Personal dental care product for caries treatment” (Credentis AG, priority 2016, dated 2025)
# Experiments:
# [1] = Penetration of P11-4 (200 ppm, spiked with 10 ppm ATTO647-P11-4, 25 mM TRIS) into artificial subsurface lesions, confocal microscopy; parameters: species or system human; key to presence of fluorescent P11-4 in lesion, 6 d / presence of fluorescent P11-4 in lesion, 1 min / presence of fluorescent P11-4 in lesion, 2 min / presence of fluorescent P11-4 in lesion, 5 min / presence of fluorescent P11-4 in lesion, 4 d: 1 = no or low presence; 4 = high presence of fluorescent P11-4; Average presence of P11-4: scale not given here; conditions: for presence of fluorescent P11-4 in lesion, 1 min: 1 min incubation; for presence of fluorescent P11-4 in lesion, 2 min: 2 min incubation; for presence of fluorescent P11-4 in lesion, 5 min: 5 min incubation; for presence of fluorescent P11-4 in lesion, 6 d: washing in H2O; for presence of fluorescent P11-4 in lesion, 4 d: washing in Remin. buffer
# Method: Creation of artificial lesions on extracted human molar teeth was performed as described by Lo et al. 2010 (J Dent. 38(4):352-359). To define the position of the demineralized subsurface area (i.e., artificial carious lesion or white spot), the tooth was covered with colourless nail varnish, leaving a window of approximately 4×4 mm. The tooth was placed in demineralization buffer (2.2 mM CaCl2, 2.2 mM NaH2PO4, 50 mM acetic acid; pH adjusted with 1 M KOH to 4.4) for 3 d at 37° C. To ensure that all pores are open, as in a typical active caries lesion, the resulting subsurface lesions were treated with 10 μL of 2% NaClO (incubation for 1 min), rinsed, and air-dried at room temperature.
# • A 200 ppm (i.e., 200 μg/ml) solution of P11-4 (SEQ ID NO: 2), spiked with 10 ppm ATTO647-P11-4 (fluorescence labelled P11-4 (SEQ ID NO: 6): Ac-QQRFEWEFEQQSGSGC-(ATTO647)-NH2), i.e., 1:20, in 25 mM TRIS buffer was prepared at different pH, in particular, at 8.4 or 8.5 or 6.3, 6.5 or 6.8) • As specified in the table below, tooth were optionally pretreated, e.g., by incubation in human saliva for one day (about 24 hours), optionally followed by 5 min sonication (258 hz with a sonic toothbrush, Sonicare Diamond Clean® (Philips)) or by immersion in 2% NaClO for 1 min. • Tooth were immersed in the P11-4 solution for a defined period of time, 1, 2 or 5 min, and then removed and washed in water for 10 min or in remineralization buffer (2 mM Ca(NO3), 1.2 mM KHPO4, and 60 mM Tris/HCl, pH adjusted to 7.4 with 1 M KOH) for 4 days and/or 6 days. • Confocal assessment after 1, 2 or 5 min incubation was carried out while the teeth were in P11-4 solution, and optionally, after washing in water or in remineralization buffer after 10 min or 4 or 6 days. c) Confocal Microscopy
# Samples were placed in a μ-slide I (ibidi, Martinsried) in dest. water and analyzed by a confocal laser microscope (Olympus IX81). The recorded stack of four 2-dimensional images each projected the lesion volume of 51.4 μm thickness, giving a total assessment depth of 205 μm (objective: UPLSAPO 20×/NA 0.75; helium-neon gas laser; excitation: 633 nm and emission: 668 nm). Images were analyzed by Olympus software (FluoView FV1000).
# [2] = pH at which the peptide starts to undergo self-assembly; assay type: physicochemical; conditions: in solution
# From the text: As used herein, the pH at which the self-assembling peptide starts to undergo self-assembly refers to the pH below which a significant extent of self-assembly of the peptides in solution is observed, which means that at least about 25%, about 30%, about 35%, about 40%, about 45%, about 50%, about 55%, about 60%, about 65%, about 70%, about 75%, about 80%, about 85%, about 90%, about 95%, about 99% or even about 100% of the peptides found in the dental care product are assembled. In a preferred embodiment, at least about 25% of the peptides found in the dental care product are assembled below the pH at which the peptide starts to undergo self-assembly.
# Further, the skilled person is aware of numerous methods to determine the pH at which a peptide of the present invention will start self-assembly at a given ionic strength. Suitable methods are denoted e.g. in a publication by Aggeli et al. (2003, J Am Chem Soc, 125, 9619-9628).
# [3] = 200 ppm in a slightly basic buffer
# [4] = tooth 1, pH 8.4, no pretreatment
# [5] = tooth 2, pH 8.4, no pretreatment
# [6] = tooth 3, pH 6.3, saliva pre-incubation
# [7] = tooth 4, pH 6.3, no pretreatment
# [8] = tooth 5, pH 8.5, saliva pre-incubation
# [9] = tooth 10, pH 8.5, no pretreatment
# [10] = tooth 11, pH 8.5, saliva pre-incubation
# [11] = tooth 12, pH 6.5, no pretreatment
# [12] = tooth 13, pH 6.8, saliva pre-incubation
# [13] = tooth ZR1, pH 8.5, sonification pretreatment
# [14] = tooth ZR2, pH 8.5, saliva pre-incubation then NaClO
# [15] = tooth ZR3, pH 8.5, saliva pre-incubation then sonification
# [16] = tooth ZR4, pH 8.5, saliva pre-incubation
substance,measurement,setting,value
Ac-QQRFEWEFEQQSGSGC-(ATTO647)-NH2 (Ac-QQRFEWEFEQQSGSGC(ATTO647)-NH2) [fluorescent P11-4],diffusion of monomeric peptide into artificial carious lesions,[1]; [3],can diffuse into the artificial carious lesions and form a stable network there
same,peptide detected outside the lesions,[1]; [3],No significant amounts
same,effect of pre-incubation with human saliva (pellicle) on presence of fluorescent peptide on the tooth or in the lesions,"[1]; pH 8.5, 1, 2, or 5 min, teeth 11, 5 and ZR4, versus no pre-incubation",significantly lower presence
same,Average presence of P11-4,[1]; [4],2.7
same,"presence of fluorescent P11-4 in lesion, 1 min",[1]; [4],4
same,"presence of fluorescent P11-4 in lesion, 2 min",[1]; [4],2
same,"presence of fluorescent P11-4 in lesion, 5 min",[1]; [4],2
same,"presence of fluorescent P11-4 in lesion, 1 min",[1]; [5],1
same,"presence of fluorescent P11-4 in lesion, 2 min",[1]; [5],3
same,"presence of fluorescent P11-4 in lesion, 5 min",[1]; [5],3
same,Average presence of P11-4,"[1]; tooth 2, pH 8.4, no pretreatment, H2O wash",2.0
same,"presence of fluorescent P11-4 in lesion, 6 d",[1]; [5],1
same,"presence of fluorescent P11-4 in lesion, 1 min",[1]; [6],1
same,"presence of fluorescent P11-4 in lesion, 2 min",[1]; [6],1
same,"presence of fluorescent P11-4 in lesion, 5 min",[1]; [6],1
same,Average presence of P11-4,"[1]; tooth 3, pH 6.3, saliva pre-incubation, H2O wash",1.0
same,"presence of fluorescent P11-4 in lesion, 6 d",[1]; [6],1
same,"presence of fluorescent P11-4 in lesion, 1 min",[1]; [7],1
same,"presence of fluorescent P11-4 in lesion, 2 min",[1]; [7],1
same,"presence of fluorescent P11-4 in lesion, 5 min",[1]; [7],2
same,Average presence of P11-4,"[1]; tooth 4, pH 6.3, no pretreatment, H2O wash",1.3
same,"presence of fluorescent P11-4 in lesion, 6 d",[1]; [7],1
same,Average presence of P11-4,[1]; [8],1.3
same,"presence of fluorescent P11-4 in lesion, 1 min",[1]; [8],2
same,"presence of fluorescent P11-4 in lesion, 2 min",[1]; [8],1
same,"presence of fluorescent P11-4 in lesion, 5 min",[1]; [8],1
same,"presence of fluorescent P11-4 in lesion, 1 min",[1]; [9],1
same,"presence of fluorescent P11-4 in lesion, 2 min",[1]; [9],4
same,"presence of fluorescent P11-4 in lesion, 5 min",[1]; [9],4
same,Average presence of P11-4,"[1]; tooth 10, pH 8.5, no pretreatment, Remin. buffer wash",2.8
same,"presence of fluorescent P11-4 in lesion, 4 d",[1]; [9],2
same,"presence of fluorescent P11-4 in lesion, 1 min",[1]; [10],1
same,"presence of fluorescent P11-4 in lesion, 2 min",[1]; [10],1
same,"presence of fluorescent P11-4 in lesion, 5 min",[1]; [10],1
same,Average presence of P11-4,"[1]; tooth 11, pH 8.5, saliva pre-incubation, Remin. buffer wash",1.0
same,"presence of fluorescent P11-4 in lesion, 4 d",[1]; [10],1
same,"presence of fluorescent P11-4 in lesion, 1 min",[1]; [11],2
same,"presence of fluorescent P11-4 in lesion, 2 min",[1]; [11],3.5
same,"presence of fluorescent P11-4 in lesion, 5 min",[1]; [11],2
same,Average presence of P11-4,"[1]; tooth 12, pH 6.5, no pretreatment, Remin. buffer wash",2.1
same,"presence of fluorescent P11-4 in lesion, 4 d",[1]; [11],1
same,"presence of fluorescent P11-4 in lesion, 1 min",[1]; [12],1
same,"presence of fluorescent P11-4 in lesion, 2 min",[1]; [12],2
same,"presence of fluorescent P11-4 in lesion, 5 min",[1]; [12],2
same,Average presence of P11-4,"[1]; tooth 13, pH 6.8, saliva pre-incubation, Remin. buffer wash",1.5
same,"presence of fluorescent P11-4 in lesion, 4 d",[1]; [12],1
same,Average presence of P11-4,[1]; [13],4.0
same,"presence of fluorescent P11-4 in lesion, 1 min",[1]; [13],4
same,"presence of fluorescent P11-4 in lesion, 2 min",[1]; [13],4
same,"presence of fluorescent P11-4 in lesion, 5 min",[1]; [13],4
same,Average presence of P11-4,[1]; [14],3.7
same,"presence of fluorescent P11-4 in lesion, 1 min",[1]; [14],3
same,"presence of fluorescent P11-4 in lesion, 2 min",[1]; [14],4
same,"presence of fluorescent P11-4 in lesion, 5 min",[1]; [14],4
same,Average presence of P11-4,[1]; [15],2.3
same,"presence of fluorescent P11-4 in lesion, 1 min",[1]; [15],1
same,"presence of fluorescent P11-4 in lesion, 2 min",[1]; [15],3
same,"presence of fluorescent P11-4 in lesion, 5 min",[1]; [15],3
same,Average presence of P11-4,[1]; [16],1.3
same,"presence of fluorescent P11-4 in lesion, 1 min",[1]; [16],1
same,"presence of fluorescent P11-4 in lesion, 2 min",[1]; [16],1
same,"presence of fluorescent P11-4 in lesion, 5 min",[1]; [16],2
CH3CO-QQRFEWEFEQQ-NH2 (Ac-QQRFEWEFEQQ-NH2) [terminally modified P11-4],pH at which the self-assembling peptides start to undergo self-assembly,[2],about 7.5
